Source: the supplement of paper PMC4862054

Key:
Experiment in all cases: normalised response (% of control), CellTiter-Glo; higher = more viable cells (100 = DMSO, 0 = benzethonium chloride kill control)
Settings in all cases: incubation time: 72 h
CAL-120 = system: CAL-120
Method in brief: (§1)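 In 384-well plates holding compound at 5 concentrations in 10-fold steps over a 10,000-fold range specific to each compound, breast cancer cell lines were seeded as 20 µl suspension and incubated 72 h. CellTox Green fluorescence was measured at 485/520 nm, after which CellTiter-Glo luminescence was measured following 10 min at room temperature. Plate signals were normalised to 0.1 % DMSO (100) and a positive kill control (0), and each value is the normalised signal at a single concentration.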

MDA-MB-436 = system: MDA-MB-436
Method in brief: as §1

HDQ-P1 = system: HDQ-P1
Method in brief: as §1

CAL-51 = system: CAL-51
Method in brief: as §1

BT-474 = system: BT-474
Method in brief: as §1

BT-549 = system: BT-549
Method in brief: as §1

DU-4475 = system: DU-4475
Method in brief: as §1

HCC1143 = system: HCC1143
Method in brief: as §1

SK-BR-3 = system: SK-BR-3
Method in brief: as §1

MCF-10A = system: MCF-10A
Method in brief: as §1

HCC1599 = system: HCC1599
Method in brief: as §1

MFM-223 = system: MFM-223
Method in brief: as §1

CAL-85-1 = system: CAL-85-1
Method in brief: as §1

MDA-MB-453 = system: MDA-MB-453
Method in brief: as §1

HCC1937 = system: HCC1937
Method in brief: as §1

MDA-MB-468 = system: MDA-MB-468
Method in brief: as §1

Hs578T = system: Hs578T
Method in brief: as §1

CAL-148 = system: CAL-148
Method in brief: as §1

MDA-MB-231 = system: MDA-MB-231
Method in brief: as §1

| Compound | normalised response (CAL-120) [%] | normalised response (MDA-MB-436) [%] | normalised response (HDQ-P1) [%] | normalised response (CAL-51) [%] | normalised response (BT-474) [%] | normalised response (BT-549) [%] | normalised response (DU-4475) [%] | normalised response (HCC1143) [%] | normalised response (SK-BR-3) [%] | normalised response (MCF-10A) [%] | normalised response (HCC1599) [%] | normalised response (MFM-223) [%] | normalised response (CAL-85-1) [%] | normalised response (MDA-MB-453) [%] | normalised response (HCC1937) [%] | normalised response (MDA-MB-468) [%] | normalised response (Hs578T) [%] | normalised response (CAL-148) [%] | normalised response (MDA-MB-231) [%] |
| --- | --- | --- | --- | --- | --- | --- | --- | --- | --- | --- | --- | --- | --- | --- | --- | --- | --- | --- | --- |
| C=CCc1cccc(/C=N/NC(=O)CN2CCN(Cc3ccccc3)CC2)c1O [PAC-1] (10 nM) | 94.6 | 98.3 | 98.9 | 108 | 98.4 | 97.7 | 106 | 100 | 107 | 112 | 112 | 110 | 100 | 104 | 103 | 111 | 103 | 107 | 100 |
| Nc1nc2[nH]cc(CCc3ccc(C(=O)N[C@@H](CCC(=O)O)C(=O)O)cc3)c2c(=O)[nH]1 [Pemetrexed] (1 nM) | 106 | 98.7 | 105 | 90 | 97.8 | 105 | 95.1 | 91.6 | 101 | 95.7 | 85.1 | 92.6 | 94.2 | 101 | 96.8 | 99 | 101 | 98.9 | 97.4 |
| Nc1nc2[nH]cc(CCc3ccc(C(=O)N[C@@H](CCC(=O)O)C(=O)O)cc3)c2c(=O)[nH]1 [Pemetrexed] (10 nM) | 105 | 91.3 | 99.5 | 73.3 | 98.2 | 108 | 95.3 | 106 | 97.1 | 100 | 88.7 | 94.9 | 97.5 | 92.8 | 104 | 93.9 | 98.5 | 98 | 96.9 |
| CC[C@H](C)C(=O)O[C@H]1C[C@H](O)C=C2C=C[C@H](C)[C@H](CC[C@@H](O)C[C@@H](O)CC(=O)O)[C@H]21 [Pravastatin] (1 nM) | 101 | 99.6 | 103 | 104 | 99.6 | 102 | 95.5 | 95.1 | 94.2 | 96 | 117 | 93.1 | 92.6 | 99.8 | 97.6 | 99.9 | 101 | 87.5 | 102 |
| CC[C@H](C)C(=O)O[C@H]1C[C@H](O)C=C2C=C[C@H](C)[C@H](CC[C@@H](O)C[C@@H](O)CC(=O)O)[C@H]21 [Pravastatin] (10 nM) | 105 | 97.7 | 106 | 128 | 98.1 | 92.2 | 91.5 | 97.3 | 95.6 | 102 | 88.5 | 92.3 | 104 | 85.2 | 95.4 | 104 | 100 | 98.7 | 99.1 |
| Cc1cnc(NC(=O)Nc2cc(Br)c(C)cc2OC[C@@H]2CNCCO2)cn1 [Rabusertib] (0.1 nM) | 107 | 106 | 102 | 108 | 109 | 103 | 109 | 103 | 111 | 109 | 88.5 | 103 | 107 | 114 | 101 | 101 | 102 | 112 | 104 |
| CNC(=O)c1cc(Oc2ccc(NC(=O)Nc3cc(C(C)(C)C)nn3-c3ccc4ncccc4c3)c(F)c2)ccn1 [Rebastinib] (0.1 nM) | 97.7 | 97.9 | 105 | 122 | 99.5 | 95.8 | 101 | 98.3 | 113 | 109 | 105 | 101 | 96.6 | 102 | 107 | 97.1 | 103 | 104 | 101 |
| CNC(=O)c1cc(Oc2ccc(NC(=O)Nc3cc(C(C)(C)C)nn3-c3ccc4ncccc4c3)c(F)c2)ccn1 [Rebastinib] (1 nM) | 99.1 | 99.5 | 100 | 123 | 98.8 | 93.8 | 98.8 | 104 | 104 | 109 | 102 | 100 | 99.5 | 93.5 | 97.6 | 96.3 | 103 | 109 | 94.7 |
| COc1cc([C@@H]2c3cc4c(cc3[C@@H](O[C@@H]3O[C@@H]5CO[C@@H](c6cccs6)O[C@H]5[C@H](O)[C@H]3O)[C@H]3COC(=O)[C@H]23)OCO4)cc(OC)c1O [Teniposide] (1 nM) | 95.8 | 96.9 | 96.4 | 125 | 99.3 | 103 | 99 | 100 | 101 | 106 | 107 | 96 | 99 | 91.8 | 106 | 95.9 | 106 | 102 | 94.1 |
| COc1cc2nccc(Oc3ccc(NC(=O)Nc4cc(C)on4)c(Cl)c3)c2cc1OC [Tivozanib] (1 nM) | 95.7 | 83.2 | 93.5 | 108 | 91.4 | 102 | 97.5 | 94.2 | 91.2 | 79 | 88.6 | 88.6 | 93 | 94.7 | 92.7 | 97.3 | 91 | 94.3 | 98.9 |
